PubChem BioAssay AID248 (DTP/NCI, 2004)
Several values for one entry are separate records, joined by “and”; a condition that tells them apart may be missing. Identical values can stand only once. Toxic doses and inconclusive results are not listed. Cut-off read from the data, not from the text of the source: active = T/C of 150% or more; inactive = T/C below 125%.

Test system: L1210 leukemia ip in BDF1 mice, survival T/C
Test: NCI In Vivo Anticancer Drug Screen. Data for tumor model L1210 Leukemia (intraperitoneal) in B6D2F1 (BDF1) mice
Settings: endpoint: mean survival time, higher = longer survival
Outline: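 Each compound was tested against a transplantable tumor grown in mice. The endpoint was survival, with treated animals benchmarked against vehicle controls as a simple ratio.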

[1] = dose: 100.0 mg/kg/injection, schedule: Q04DX002 (ip), vehicle: saline with Tween-80
[2] = dose: 200.0 mg/kg/injection, schedule: Q04DX002 (ip), vehicle: saline with Tween-80
[3] = dose: 400.0 mg/kg/injection, schedule: Q04DX002 (ip), vehicle: saline with Tween-80
[4] = dose: 100.0 mg/kg/injection, schedule: Q01DX001 (ip), vehicle: saline
[5] = dose: 200.0 mg/kg/injection, schedule: Q01DX001 (ip), vehicle: saline
[6] = dose: 400.0 mg/kg/injection, schedule: Q01DX001 (ip), vehicle: saline
[7] = dose: 100.0 mg/kg/injection, schedule: Q01DX009 (ip), vehicle: Klucel (hydroxypropylcellulose) (HPC)
[8] = dose: 200.0 mg/kg/injection, schedule: Q01DX009 (ip), vehicle: Klucel (hydroxypropylcellulose) (HPC)
[9] = dose: 100.0 mg/kg/injection, schedule: Q01DX009 (ip), vehicle: saline
[10] = dose: 100.0 mg/kg/injection, schedule: Q04DX003 (ip), vehicle: saline
[11] = dose: 200.0 mg/kg/injection, schedule: Q04DX003 (ip), vehicle: saline

Measured: T/C

CCCCCCCCCCCCCC[n+]1ccccc1
inactive: dose: 0.25 mg/kg/injection, schedule: Q04DX003 (ip), vehicle: saline 96 % of control | dose: 0.5 mg/kg/injection, schedule: Q01DX001 (ip), vehicle: saline 97 % of control | dose: 0.5 mg/kg/injection, schedule: Q04DX003 (ip), vehicle: saline 94 % of control | dose: 1.0 mg/kg/injection, schedule: Q01DX001 (ip), vehicle: saline 105 % of control | dose: 1.0 mg/kg/injection, schedule: Q04DX003 (ip), vehicle: saline 96 % of control | dose: 2.0 mg/kg/injection, schedule: Q01DX001 (ip), vehicle: saline 112 % of control | dose: 2.0 mg/kg/injection, schedule: Q04DX003 (ip), vehicle: saline 96 % of control | dose: 4.0 mg/kg/injection, schedule: Q04DX003 (ip), vehicle: saline 109 % of control | dose: 62.5 micrograms/kg/injection, schedule: Q01DX009 (ip), vehicle: saline 119 % of control | dose: 125.0 micrograms/kg/injection, schedule: Q01DX009 (ip), vehicle: saline 100 % of control | dose: 250.0 micrograms/kg/injection, schedule: Q01DX009 (ip), vehicle: saline 113 % of control | dose: 500.0 micrograms/kg/injection, schedule: Q01DX009 (ip), vehicle: saline 105 % of control | dose: 1000.0 micrograms/kg/injection, schedule: Q01DX009 (ip), vehicle: saline 110 % of control

Cn1c(NN)cc(=O)n(C)c1=O
inactive: dose: 75.0 mg/kg/injection, schedule: Q04DX003 (ip), vehicle: saline 107 % of control | dose: 150.0 mg/kg/injection, schedule: Q04DX003 (ip), vehicle: saline 94 % of control | dose: 300.0 mg/kg/injection, schedule: Q04DX003 (ip), vehicle: saline 104 % of control

COC(=O)c1c(C)n(C)c2c1c1c(O)c3c(O)c(C)c4c(c32)C(=O)C(C)(O/C=C/C(OC)C(C)C(OC(C)=O)C(C)C(O)C(C)C(O)C(C)/C=C\C=C(C)C(=O)N1)O4 (configuration not stated)
inactive: dose: 50.0 mg/kg/injection, schedule: Q04DX003 (ip), vehicle: water 104 % of control | dose: 100.0 mg/kg/injection, schedule: Q04DX003 (ip), vehicle: water 100 % of control | dose: 200.0 mg/kg/injection, schedule: Q04DX003 (ip), vehicle: water 98 % of control | dose: 400.0 mg/kg/injection, schedule: Q04DX003 (ip), vehicle: water 98 % of control

O=S(=O)(CCCCl)Nc1ccccn1
inactive: [1] 100 % of control | [2] 93 % of control | [3] 93 % of control

CCC(COC(=O)c1ccc(N(CC)CC)cc1)NC1CCCCC1 (configuration not stated)
inactive: dose: 75.0 mg/kg/injection, schedule: Q01DX001 (ip), vehicle: carboxymethylcellulose (CMC) 95 % of control | dose: 150.0 mg/kg/injection, schedule: Q01DX001 (ip), vehicle: carboxymethylcellulose (CMC) 95 % of control | dose: 300.0 mg/kg/injection, schedule: Q01DX001 (ip), vehicle: carboxymethylcellulose (CMC) 94 % of control

C[n+]1ccc(Cl)c2ccc(Cl)cc21
inactive: dose: 10.0 mg/kg/injection, schedule: Q01DX001 (ip), vehicle: saline 100 % of control | dose: 20.0 mg/kg/injection, schedule: Q01DX001 (ip), vehicle: saline 102 % of control | dose: 40.0 mg/kg/injection, schedule: Q01DX001 (ip), vehicle: saline 102 % of control

CN1CSC(=S)N(Cc2ccccc2)C1
inactive: [1] 94 % of control | [2] 97 % of control | [3] 105 % of control

O=c1c(O)c(-c2ccc(Cl)cc2)oc2ccccc12
inactive: dose: 50.0 mg/kg/injection, schedule: Q01DX001 (ip), vehicle: saline 87 % of control | [4] 93 % of control | [5] 93 % of control | [6] 98 % of control

CCOC(=O)CCN(CC(C)C)C(=S)Nc1ccccc1
inactive: dose: 100.0 mg/kg/injection, schedule: Q01DX Z (ip), vehicle: methylcellulose (MC) 93 % of control

C=CCSc1nccnc1C
inactive: dose: 50.0 mg/kg/injection, schedule: Q01DX009 (ip), vehicle: Klucel (hydroxypropylcellulose) (HPC) 100 % of control | [7] 103 % of control | [8] 110 % of control

CCCCOC(=O)Oc1ccc(C(=O)Oc2ccc(OCC)cc2)cc1
inactive: [7] 111 % of control | dose: 100.0 mg/kg/injection, schedule: Q04DX003 (ip), vehicle: Klucel (hydroxypropylcellulose) (HPC) 104 % of control | [8] 106 % of control | dose: 200.0 mg/kg/injection, schedule: Q04DX003 (ip), vehicle: Klucel (hydroxypropylcellulose) (HPC) 109 % of control | dose: 400.0 mg/kg/injection, schedule: Q04DX003 (ip), vehicle: Klucel (hydroxypropylcellulose) (HPC) 98 % of control

O=C(O)c1c(F)c(F)c(O)c(F)c1F
inactive: dose: 25.6 mg/kg/injection, schedule: Q04DX002 (ip), vehicle: saline with Tween-80 103 % of control | dose: 64.0 mg/kg/injection, schedule: Q04DX002 (ip), vehicle: saline with Tween-80 110 % of control | dose: 160.0 mg/kg/injection, schedule: Q04DX002 (ip), vehicle: saline with Tween-80 89 % of control | [3] 103 % of control

O=C(O)CNCc1ccc(Cl)c(Cl)c1
inactive: dose: 75.0 mg/kg/injection, schedule: Q01DX009 (ip), vehicle: saline 100 % of control | [9] 97 % of control and 120 % of control | [10] 96 % of control | dose: 150.0 mg/kg/injection, schedule: Q01DX009 (ip), vehicle: saline 99 % of control | dose: 200.0 mg/kg/injection, schedule: Q01DX009 (ip), vehicle: saline 111 % of control | [11] 102 % of control | dose: 400.0 mg/kg/injection, schedule: Q01DX009 (ip), vehicle: saline 95 % of control | dose: 400.0 mg/kg/injection, schedule: Q04DX003 (ip), vehicle: saline 90 % of control

C=Cc1c(C)c(O)cc2c1CC[C@@H]1C(C)(C)[C@H](O)[C@H](O)C[C@@]21C
inactive: dose: 100.0 mg/kg/injection, schedule: Q04DX003 (ip), vehicle: saline with Tween-80 103 % of control | dose: 200.0 mg/kg/injection, schedule: Q04DX003 (ip), vehicle: saline with Tween-80 100 % of control | dose: 400.0 mg/kg/injection, schedule: Q04DX003 (ip), vehicle: saline with Tween-80 98 % of control

C/C(=N/NC(N)=S)c1ccco1
inactive: [5] 119 % of control | [6] 102 % of control

COC1OC(COC(C)=O)C(OC(C)=O)C(NC(=O)NCCCl)C1OC(C)=O (configuration not stated)
inactive: dose: 100.0 mg/kg/injection, schedule: Q01DX001 (ip), vehicle: Klucel (hydroxypropylcellulose) (HPC) 105 % of control | dose: 200.0 mg/kg/injection, schedule: Q01DX001 (ip), vehicle: Klucel (hydroxypropylcellulose) (HPC) 102 % of control | dose: 400.0 mg/kg/injection, schedule: Q01DX001 (ip), vehicle: Klucel (hydroxypropylcellulose) (HPC) 102 % of control

Nc1ncnc2c1ncn2C1CCC(CO)O1 (configuration not stated)
inactive: [4] 103 % of control | [5] 115 % of control | [6] 105 % of control

CSc1ccc(NC(=O)C(C)Oc2ccccc2)cc1 (configuration not stated)
inactive: dose: 50.0 mg/kg/injection, schedule: Q01DX001 (ip), vehicle: saline with Tween-80 95 % of control | dose: 100.0 mg/kg/injection, schedule: Q01DX001 (ip), vehicle: saline with Tween-80 87 % of control and 92 % of control | dose: 100.0 mg/kg/injection, schedule: Q01DX009 (ip), vehicle: saline with Tween-80 97 % of control and 102 % of control | [1] 94 % of control and 96 % of control | dose: 200.0 mg/kg/injection, schedule: Q01DX001 (ip), vehicle: saline with Tween-80 87 % of control | dose: 200.0 mg/kg/injection, schedule: Q01DX009 (ip), vehicle: saline with Tween-80 93 % of control and 102 % of control | [2] 96 % of control and 105 % of control | dose: 400.0 mg/kg/injection, schedule: Q01DX001 (ip), vehicle: saline with Tween-80 87 % of control and 90 % of control | dose: 400.0 mg/kg/injection, schedule: Q01DX009 (ip), vehicle: saline with Tween-80 95 % of control and 98 % of control | [3] 96 % of control and 101 % of control

NC(N)=Nc1ccc(C(=O)Oc2ccc([N+](=O)[O-])cc2Cl)cc1
inactive: dose: 25.0 mg/kg/injection, schedule: Q01DX009 (ip), vehicle: saline 94 % of control | dose: 50.0 mg/kg/injection, schedule: Q01DX009 (ip), vehicle: saline 97 % of control | [9] 87 % of control | [10] 96 % of control | [11] 94 % of control

CC[N+](C)(CC)CCOC(=O)C1C2CC3OC(=O)C1C3C2 (configuration not stated)
inactive: [10] 108 % of control | [11] 112 % of control

c1ccc(C2=NC(c3ccccc3)NC2c2ccccc2)cc1 (configuration not stated)
inactive: dose: 25.0 mg/kg/injection, schedule: Q01DX001 (ip), vehicle: Klucel (hydroxypropylcellulose) (HPC) 95 % of control | dose: 50.0 mg/kg/injection, schedule: Q01DX001 (ip), vehicle: Klucel (hydroxypropylcellulose) (HPC) 98 % of control
